Data as given in the NIST ThermoML archive (doi:10.1021/je049671t).

Experiment: xn = mol fraction of the nth substance listed
Conditions: Liquid, Vibrating tube method

CC(C)C [2-methylpropane] + CCC
Conditions	mass density [kg/m3]
240 K, 398.2 kPa, x2 = 0.25	608.19
240 K, 475.1 kPa, x2 = 0.25	608.27
240 K, 529.1 kPa, x2 = 0.75	584.35
240 K, 1000.1 kPa, x2 = 0.25	608.87
240 K, 1024.1 kPa, x2 = 0.75	584.98
240 K, 1473.4 kPa, x2 = 0.75	585.53
240 K, 1505.9 kPa, x2 = 0.25	609.45
240 K, 2000.7 kPa, x2 = 0.75	586.19
240 K, 2004.5 kPa, x2 = 0.25	610.02
240 K, 2531.8 kPa, x2 = 0.75	586.84
240 K, 2533 kPa, x2 = 0.25	610.61
240 K, 3006.4 kPa, x2 = 0.75	587.4
240 K, 3028.4 kPa, x2 = 0.25	611.15
240 K, 3537.9 kPa, x2 = 0.25	611.73
240 K, 3545.4 kPa, x2 = 0.75	588.06
240 K, 4012.9 kPa, x2 = 0.75	588.63
240 K, 4027.7 kPa, x2 = 0.25	612.28
240 K, 4515.3 kPa, x2 = 0.75	589.21
240 K, 4519.1 kPa, x2 = 0.25	612.81
240 K, 4996.8 kPa, x2 = 0.75	589.79
240 K, 5030.4 kPa, x2 = 0.25	613.37
240 K, 5496.4 kPa, x2 = 0.75	590.37
240 K, 5533.4 kPa, x2 = 0.25	613.91
240 K, 6009 kPa, x2 = 0.75	590.98
240 K, 6033 kPa, x2 = 0.25	614.45
240 K, 6541 kPa, x2 = 0.75	591.59
240 K, 6541.5 kPa, x2 = 0.25	615
240 K, 6969.5 kPa, x2 = 0.75	592.1
240 K, 6987.7 kPa, x2 = 0.25	615.48
250 K, 515.5 kPa, x2 = 0.499	584.94
250 K, 1014.4 kPa, x2 = 0.499	585.61
250 K, 1511.1 kPa, x2 = 0.499	586.26
250 K, 2027.5 kPa, x2 = 0.499	586.95
250 K, 2489.8 kPa, x2 = 0.499	587.55
250 K, 3012.9 kPa, x2 = 0.499	588.23
250 K, 3492.5 kPa, x2 = 0.499	588.84
250 K, 3995.9 kPa, x2 = 0.499	589.47
250 K, 4532.5 kPa, x2 = 0.499	590.12
250 K, 5042.2 kPa, x2 = 0.499	590.74
250 K, 5484.6 kPa, x2 = 0.499	591.29
250 K, 5996.5 kPa, x2 = 0.499	591.9
250 K, 6509.5 kPa, x2 = 0.499	592.48
250 K, 6818.8 kPa, x2 = 0.499	592.84
260 K, 251.9 kPa, x2 = 0.75	560.57
260 K, 521.1 kPa, x2 = 0.25	586.55
260 K, 527 kPa, x2 = 0.75	561.44
260 K, 990.2 kPa, x2 = 0.25	587.2
260 K, 1026.1 kPa, x2 = 0.75	562.22
260 K, 1481.6 kPa, x2 = 0.25	587.88
260 K, 1524.1 kPa, x2 = 0.75	563.04
260 K, 2004.4 kPa, x2 = 0.25	588.63
260 K, 2030.6 kPa, x2 = 0.75	563.8
260 K, 2504.8 kPa, x2 = 0.25	589.32
260 K, 2508.8 kPa, x2 = 0.75	564.52
260 K, 2995 kPa, x2 = 0.25	589.98
260 K, 3035.5 kPa, x2 = 0.75	565.31
260 K, 3494.1 kPa, x2 = 0.75	566
260 K, 3517.2 kPa, x2 = 0.25	590.65
260 K, 3986.7 kPa, x2 = 0.25	591.2
260 K, 4039.9 kPa, x2 = 0.75	566.81
260 K, 4476.3 kPa, x2 = 0.25	591.87
260 K, 4527.2 kPa, x2 = 0.75	567.5
260 K, 4968.6 kPa, x2 = 0.75	568.07
260 K, 4976.3 kPa, x2 = 0.25	592.53
260 K, 5537.1 kPa, x2 = 0.75	568.72
260 K, 5550.8 kPa, x2 = 0.25	593.3
260 K, 6051.9 kPa, x2 = 0.25	593.96
260 K, 6474.3 kPa, x2 = 0.25	594.47
260 K, 6513.6 kPa, x2 = 0.75	570.1
260 K, 6922.9 kPa, x2 = 0.75	570.57
260 K, 7006.2 kPa, x2 = 0.25	595.15
280 K, 467.2 kPa, x2 = 0.499	549.36
280 K, 478.7 kPa, x2 = 0.75	535.35
280 K, 500.3 kPa, x2 = 0.25	562.94
280 K, 952.8 kPa, x2 = 0.499	550.3
280 K, 990.6 kPa, x2 = 0.75	536.42
280 K, 1004.7 kPa, x2 = 0.25	563.86
280 K, 1462.8 kPa, x2 = 0.25	564.67
280 K, 1514 kPa, x2 = 0.499	551.39
280 K, 1517.2 kPa, x2 = 0.75	537.51
280 K, 2007.8 kPa, x2 = 0.25	565.62
280 K, 2007.8 kPa, x2 = 0.499	552.34
280 K, 2029.6 kPa, x2 = 0.75	538.54
280 K, 2489.1 kPa, x2 = 0.499	553.22
280 K, 2510.3 kPa, x2 = 0.75	539.5
280 K, 2513.6 kPa, x2 = 0.25	566.51
280 K, 2999.1 kPa, x2 = 0.25	567.36
280 K, 3019.4 kPa, x2 = 0.75	540.5
280 K, 3022.9 kPa, x2 = 0.499	554.21
280 K, 3488.8 kPa, x2 = 0.25	568.19
280 K, 3519.6 kPa, x2 = 0.499	555.1
280 K, 3522.3 kPa, x2 = 0.75	541.47
280 K, 3992 kPa, x2 = 0.499	555.95
280 K, 3992.4 kPa, x2 = 0.25	569.03
280 K, 4026.3 kPa, x2 = 0.75	542.43
280 K, 4516.8 kPa, x2 = 0.25	569.91
280 K, 4518.6 kPa, x2 = 0.499	556.87
280 K, 4544.4 kPa, x2 = 0.75	543.38
280 K, 4965.2 kPa, x2 = 0.75	544.17
280 K, 4979.1 kPa, x2 = 0.25	570.66
280 K, 5014 kPa, x2 = 0.499	557.72
280 K, 5482.8 kPa, x2 = 0.499	558.54
280 K, 5485 kPa, x2 = 0.25	571.47
280 K, 5530.9 kPa, x2 = 0.75	545.19
280 K, 5989.4 kPa, x2 = 0.25	572.28
280 K, 6012.9 kPa, x2 = 0.75	546.05
280 K, 6027 kPa, x2 = 0.499	559.46
280 K, 6488.2 kPa, x2 = 0.75	546.89
280 K, 6525.9 kPa, x2 = 0.499	560.31
280 K, 6532.5 kPa, x2 = 0.25	573.13
280 K, 6931.1 kPa, x2 = 0.75	547.66
280 K, 6938.9 kPa, x2 = 0.499	560.98
280 K, 6965.6 kPa, x2 = 0.25	573.82
280 K, 6968.2 kPa, x2 = 0.25	573.78
300 K, 824.3 kPa, x2 = 0.75	507.35
300 K, 996.8 kPa, x2 = 0.499	523.82
300 K, 1001.6 kPa, x2 = 0.25	538.53
300 K, 1503.7 kPa, x2 = 0.25	539.71
300 K, 1519.6 kPa, x2 = 0.499	525.17
300 K, 1534 kPa, x2 = 0.75	509.38
300 K, 2006.6 kPa, x2 = 0.25	540.87
300 K, 2026.1 kPa, x2 = 0.499	526.45
300 K, 2028.3 kPa, x2 = 0.75	510.77
300 K, 2493.2 kPa, x2 = 0.75	512.04
300 K, 2510.6 kPa, x2 = 0.25	542.01
300 K, 2530.4 kPa, x2 = 0.499	527.7
300 K, 3014.6 kPa, x2 = 0.25	543.13
300 K, 3028.7 kPa, x2 = 0.75	513.47
300 K, 3043.4 kPa, x2 = 0.499	528.93
300 K, 3486.8 kPa, x2 = 0.499	529.95
300 K, 3488.8 kPa, x2 = 0.25	544.16
300 K, 3519.2 kPa, x2 = 0.75	514.75
300 K, 3995.5 kPa, x2 = 0.499	531.16
300 K, 3996.7 kPa, x2 = 0.75	515.97
300 K, 4012 kPa, x2 = 0.25	545.28
300 K, 4467.1 kPa, x2 = 0.75	517.17
300 K, 4483.4 kPa, x2 = 0.25	546.25
300 K, 4503.6 kPa, x2 = 0.499	532.34

mass density [kg/m3]
Conditions	240 K	250 K	260 K	280 K
x2 = 0.25	607.81	–	585.98	562.49
x2 = 0.499	–	584.44	–	549.15
x2 = 0.75	583.82	–	560.96	535.32
